From patent US12071431B2, “Pyridin-sulfonamide compounds for the treatment of conditions related to interleukin 1 beta” (ALLINKY BIOPHARMA, priority 2018, dated 2024)

How the values were obtained:
[1] = test system: IL-1β; experiment: In vitro inhibition of IL-1β in human primary macrophages challenged with LPS (ELISA); format: cell-based; details: Primary macrophage, 2 hours compound pre-treatment, 100 ng/mL LPS, 16 hours, read-out: IC50 (IL-Iβ inhibition)
Method: Example 12—In Vitro Inhibition of IL-1β in Human Primary Macrophages Challenged with LPS
5 mL of RPMI media without serum (1:1) was added to a sample of 5 mL of human whole blood in EDTA or sodium citrate and mixed well by inversion. 3 mL of Histopaque-1077 was added to a 15 mL conical centrifuge tube and brought to room temperature. Using a transfer pipette, 10 mL of the blood-RPMI mixture was carefully layered onto the Histopaque-1077 and was centrifuged at 400×g for exactly 30 minutes at room temperature.
After centrifugation, a pasteur pipette was used to aspirate the upper layer to within 0.5 cm of the opaque interface containing the mononuclear cells. The upper layer was discarded. With a Pasteur pipette, the opaque interface was carefully transferred to a clean conical centrifuge tube. 5 mL RPMI was added to the tube and mixed by inversion, followed by centrifugation at 250×g for exactly 10 minutes. The supernatant was aspirated and discarded.
The leukocyte pellet was re-suspended with 5 mL RPMI and mixed gently with a Pasteur pipette, followed by centrifugation at 250×g for exactly 10 minutes. The pellet was washed 3× with PBS and re-suspended in RPMI medium.
2×10^5 PBMCs at a total volume of 200 μL/well were plated into a 96-well plate and incubated for 4 hrs at 37° C. in a CO2 incubator to allow the monocytes to settle, leaving the lymphocytes in suspension. Following incubation, 100 μL were aspirated out of each well to ensure removal of the lymphocyte population.
The monocytes were differentiated to macrophages by addition of 200 ng/mL of recombinant human GM-CSF (4 mg/mL stock) and incubated at 37° C./5% CO2 for 6 days. The medium was changed every two days by removing half the volume of medium in the well and re-supplementing with fresh RPMI complete medium and recombinant human GM-CSF.
Following differentiation, the cells were treated in duplicates with a compound according to the invention in a total volume of 50 μL, maintaining a final DMSO percentile of 0.5%. The plate was transferred to an incubator maintained at 37° C./5% CO2 for 2 hours. The cells were stimulated with 100 ng/mL of LPS (4×) (1 mg/mL stock) in a total volume of 50 μL.
The plate was transferred to an incubator maintained at 37° C./5% CO2 for 16 hours.
• 1. Each well from a pre-coated ELISA plate was aspirated and washed with wash buffer (0.05% Tween 20 in PBS; pH 7.2-7.4) by filling each well with wash buffer (300 μL). The process was repeated two times for a total of three washes. The liquid was removed completely at each step. After the last wash, any remaining wash buffer was removed. • 2. Plates were blocked by adding 300 μL of block buffer (1% BSA in PBS) to each well and incubated at room temperature for 1 hour. • 3. The aspiration/wash as in step 1 was repeated. • 4. 100 μL of sample or standard prepared in reagent diluent (0.1% BSA, 0.05% Tween 20 in PBS pH7.2-7.4) was added. The wells were covered with an adhesive strip and incubated for 2 hours at room temperature. • 5. The aspiration/wash as in step 1 was repeated. • 6. 100 μL of detection antibody, diluted in reagent diluent, was added to each well. The wells were covered with a new adhesive strip and incubated for 2 hours at room temperature. • 7. The aspiration/wash as in step 1 was repeated. • 8. 100 μL of the working dilution (1:200 from the stock) and streptavidin-HRP was added to each well. The plate was covered and incubated for 20 minutes at room temperature. • 9. 100 μL of substrate solution (1:1 mixture of H2O2 and tetramethylbenzidine) was added to each well and incubated for 20 minutes at room temperature. • 10.50 μL of stop solution (2N H2SO4) was added to each well. The plate was tapped gently to ensure thorough mixing. • 11. The optical density of each well was determined immediately using a microplate reader (Spectramax Plus) set to 450 nm. Cytokine Viability Assessment […]

[2] = test system: human primary macrophages; experiment: Cell viability assessment (CellTiter-Glo) in the macrophage assay plates; format: cell-based; parameters: concentration or dose not given beside the values; details: CellTiter-Glo luminescent assay
Method: 2×10^5 PBMCs at a total volume of 200 μL/well were plated into a 96-well plate and incubated for 4 hrs at 37° C. in a CO2 incubator to allow the monocytes to settle, leaving the lymphocytes in suspension. Following incubation, 100 μL were aspirated out of each well to ensure removal of the lymphocyte population. The monocytes were differentiated to macrophages by addition of 200 ng/mL of recombinant human GM-CSF (4 mg/mL stock) and incubated at 37° C./5% CO2 for 6 days. The medium was changed every two days by removing half the volume of medium in the well and re-supplementing with fresh RPMI complete medium and recombinant human GM-CSF. Following differentiation, the cells were treated in duplicates with a compound according to the invention in a total volume of 50 μL, maintaining a final DMSO percentile of 0.5%. The plate was transferred to an incubator maintained at 37° C./5% CO2 for 2 hours. The cells were stimulated with 100 ng/mL of LPS (4×) (1 mg/mL stock) in a total volume of 50 μL. The plate was transferred to an incubator maintained at 37° C./5% CO2 for 16 hours. 100 μl/well volume of CellTiter-Glo® luminescent reagent was added to the assay plates and incubated at room temperature for 30 mins on a plate shaker. Following incubation, the luminescent signal of each well was determined using a microplate reader (Perkin Elmer ENVISION 2104). Cytotoxicity of the test compounds was determined utilizing the following formula: % Cytotoxicity=100−(100*(Average Test Compound Counts−Average Negative Control Counts)/(Average Positive Control Counts−Average Negative Control Counts)) All of the “Counts” stated in this formula are derived from “luminescent signal” determined as described for the cytokine viability assessment.

[3] = test system: Non-Alcoholic Steatohepatitis (NASH) in male C57BL/6 mice; experiment: Treatment of non-alcoholic steatohepatitis (NASH) in male C57BL/6 mice (streptozotocin + high-fat diet); format: in vivo; details: for hepatomegaly and liver to body weight ratio: 28 days of treatment, FIG. 3
Method: Example 15: Effect of Compound 5 and 7 in the Treatment of Non-Alcoholic Steatohepatitis (NASH) in Male C57BL/6 Mice
Timed pregnant mice (n=30) were selected for the study. The delivered pups were subcutaneously injected on the post-natal day 2 (PND-2) with 200 μg of Streptozotocin and were allowed to remain with the mother until they reached the weanling age. After weanling, the male pups were selected and fed with 60% kcal fat diet (Research Diet-D12492) for the next 2 weeks. All the animals were observed twice daily for clinical signs.
Mice were dosed with vehicle, test compounds and reference compound (elafibranor) twice daily morning (9.00 AM) and evening before the start of dark cycle (6:00 PM) from day 0 to 28.
Animal body weight measurements were made daily for the complete duration of the experiment.
Animals were dosed for 28 days (from week 6 to 10) with the test and reference compounds.
Blood glucose was estimated before the treatment start and on the termination day 28. Serum ALT and AST levels were measured from the plasma before the treatment start and on day 28.
Histopathology analysis including H&E staining, Masson's trichrome staining and Oil-Red-O (ORO) staining was performed for the liver tissues.
All the H&E stained tissue sections were examined by light microscopy. As per the below grading system (Kleiner et al., 2005) in 200× objective lens, NAFLD scoring was done for steatosis, lobular inflammation and hepatic ballooning.
All the Masson's trichrome stained tissue sections were examined by light microscopy in 100× objective lens. Randomly selected five fields (approx 684.85 μm×917.11 m per field) from each liver were subjected to collagen proportion area measurement by using Image Pro Premier 9.1 software. The percentage of collagen proportion area was calculated by dividing collagen tissue area by total tissue area.
All the Oil-Red-O stained tissue sections were examined by light microscopy in 100× objective lens. Randomly selected five fields (approximately 688.33 μm×922.45 μm per field) from each liver were subjected to measure stained area by using Image Pro Premier 9.1 software. The percentage of stained area was calculated by dividing lipid stained tissue area by total tissue area.

[4] = test system: Bleomycin-induced IPF; experiment: Treatment of bleomycin-induced IPF in mice; format: in vivo
Description: Example 16: Effect of Compound 7 in the Treatment of Bleomycin-Induced IPF Timed pregnant mice (n=30) were selected for the study. The delivered pups were subcutaneously injected on the post-natal day 2 (PND-2) with 1.5 U/kg of Bleomycin (intra-tracheal) and were allowed to remain with the mother until they reached the weanling age. After weanling, the male pups were selected and fed with 60% kcal fat diet (Research Diet-D12492) for the next week. All the animals were observed twice daily for clinical signs. Mice were orally dosed with vehicle, test compounds and reference compound (Pirfenidone) twice daily morning (9.00 AM) and evening before the start of dark cycle (6:00 PM) from day 0 to 14. Animal body weight measurements were made daily for the complete duration of the experiment. Animals were dosed for 14 days with the test and reference compounds. Lung hydroxyproline level was estimated before the treatment start and on the termination day 14. Total cell count and differential leukocyte count in BALF were measured before the treatment start and on […]. Histopathology analysis in the form of H&E Ashcroft score was performed for the lung tissues. All the H&E stained tissue sections were examined by light microscopy. As per the below grading system (Kleiner et al., 2005) in 200× objective lens, IPF scoring was carried out. Collagen Proportion Area (% CPA) Measurement: Masson's Trichrome Staining All the Masson's trichrome stained tissue sections were examined by light microscopy in 100× objective lens. Randomly selected five fields (approx 684.85 μm×917.11m per field) from each lung were subjected to collagen proportion area measurement by using Image Pro Premier 9.1 software. The percentage of collagen proportion area was calculated by dividing collagen tissue area by total tissue area.

[5] = 3 mg/kg dose, twice daily, 28 days, H&E NAFLD scoring

Row | Structure (SMILES) | IC50 [1] | Cell viability [2] | other results
1 | CN(C)S(=O)(=O)c1cnc(N2CCC(Oc3ccc(C(N)=O)nc3)CC2)c(Oc2ccc3c(c2)CCO3)c1 [Compound 12] | 2.3 µM | 100% | –
2 | CSc1ccc(C(=O)/C=C/c2cc(C)c(OC(C)(C)C(=O)O)c(C)c2)cc1 [Elafibranor, reference compound] | – | – | hepatomegaly and liver to body weight ratio [3]: hepatomegaly and increase in liver to body weight ratio
3 | CCOc1ccc(Oc2cc(S(=O)(=O)N(C)C)cnc2N2CCC(Oc3ccc(C(N)=O)nc3)CC2)cc1 [Compound 8] | 0.337 µM | 100% | –
4 | CN(C)S(=O)(=O)c1cnc(N2CCC(Oc3ccc(C(N)=O)nc3)CC2)c(Oc2ccc(OC(F)(F)F)cc2)c1 [Compound 9] | 0.531 µM | 100% | –
5 | Cc1ccc(Oc2cc(S(=O)(=O)N(C)C)cnc2N2CCC(Oc3ccc(C(N)=O)nc3)CC2)cc1 [Compound 10] | 0.41 µM | 100% | –
6 | Cc1ccc(=O)n(-c2ccccc2)c1 [Pirfenidone, reference compound] | – | – | BALF macrophage counts ([4]; compared with Bleomycin control, Compound 7 p>0.05, Pirfenidone p<0.05, FIGS. 5A and 5B): reduced; % CPA (Collagen Proportion Area) ([4]; lung, Masson's trichrome, in comparison with Bleomycin control, p<0.05, FIG. 6B): significant reduction; fibrosis score (H&E Ashcroft Score) ([4]; lung, in comparison with Bleomycin control, p<0.05, FIG. 6A): significant reduction
7 | CCOc1ccc(Oc2cc(S(C)(=O)=O)cnc2N2CCC(Oc3ccc(Cl)cc3)CC2)cc1 [Compound 11] | 0.753 µM | 100% | –

The remaining molecules from weak to strong by IC50 [1], led by results:

Row | IC50 [1] | Structure (SMILES) | Cell viability [2] | other results
8 | 0.3 µM | CCCOc1ccc(Nc2cc(S(=O)(=O)N(C)C)cnc2N2CCN(Cc3ccc(Cl)cc3)CC2)cc1 [Compound 4] | 100% | –
9 | 0.121 µM | CN(C)S(=O)(=O)c1cnc(N2CCC(Oc3ccc(Cl)cc3)CC2)c(Nc2ccc3c(c2)OCO3)c1 [Compound 3] | 100% | –
10 | 0.115 µM | CN(C)S(=O)(=O)c1cnc(N2CCC(Oc3ccc(Cl)cc3)CC2)c(-c2ccc3c(c2)CCO3)c1 [Compound 1] | 100% | –
11 | 0.029 µM | CN(C)S(=O)(=O)c1cnc(N2CCC(Oc3ccc(Cl)cc3)CC2)c(Nc2ccc3c(c2)CCO3)c1 [Compound 2] | 100% | –
12 | 0.028 µM | CN(C)S(=O)(=O)c1cnc(N2CCC(Oc3ccc(Cl)cc3)CC2)c(Oc2ccc3c(c2)CCO3)c1 [Compound 5] | 100% | NAFLD activity score (NAS) ([3]; 3 mg/kg dose, twice daily, 28 days, FIG. 1): significant reduced NAS score than disease controls; hepatic ballooning [3, 5]: trend towards decreased; lobular inflammation in the liver [3, 5]: significantly reduced; steatosis in the liver [3, 5]: trend towards decreased; hepatomegaly and liver to body weight ratio [3]: did not show any hepatomegaly and increase in liver to body weight ratio; Serum AST levels ([3]; after 28 days of treatment, FIG. 2): significantly reduced
13 | 0.013 µM | CN(C)S(=O)(=O)c1cnc(N2CCC(Oc3ccc(Cl)cc3)CC2)c(Nc2ccc3oc(CO)cc3c2)c1 [Compound 6] | 100% | –
